Earlier results as cited in patent US8293800B2, “Quinone derivative 2,3-dimethoxy-5-methyl-6-(10-hydroxydecyl)-1,4-benzoquinone for the treatment of primary progressive multiple sclerosis” (Santhera Pharmaceuticals (Schweiz) AG, priority 2009, dated 2012).

Columns and labels:
[1] = PP-MS cohort; did not reach statistical significance
[2] = chronic-progressive form of MS; 90 mg/day in combination with methylprednisolone over 240 days
[3] = PP-MS patients
[4] = PP-MS, placebo-controlled Phase II

Nc1nc2ccc(OC(F)(F)F)cc2s1 [riluzole]
inhibiting the development of cervical cord atrophy [1]: mild effect

COC1=C(OC)C(=O)C(CCCCCCCCCCO)=C(C)C1=O [Idebenone, 2,3-dimethoxy-5-methyl-6-(10-hydroxydecyl)-1,4-benzoquinone]
clinical or neurophysiological efficacy [2]: could not be shown to have any clinical or neurophysiological efficacy

interferon-beta
could slow down the accumulation of disability in PP-MS [3]: Neither

Rituximab: Rituximab, tested in a placebo-controlled Phase II trial in PP-MS
effect on the accumulation of disability [4]: failed to demonstrate any effect
